For 22 molecules, IC50 results are on record in patent US12187713B2, “Immunomodulators, compositions and methods thereof” (Betta Pharmaceuticals Co., Ltd, priority 2019, dated 2025).

PD-1/PD-L1, sequence (Q9NZQ7 19-238): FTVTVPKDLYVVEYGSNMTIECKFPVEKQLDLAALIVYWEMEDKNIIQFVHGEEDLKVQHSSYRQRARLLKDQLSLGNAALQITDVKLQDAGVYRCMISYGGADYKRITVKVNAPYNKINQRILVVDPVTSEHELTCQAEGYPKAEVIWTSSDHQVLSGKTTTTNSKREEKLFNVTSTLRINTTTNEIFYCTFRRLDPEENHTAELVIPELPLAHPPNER

The first assay addresses PD-1/PD-L1 (Homo sapiens (Human), UniProt Q9NZQ7). Kind of assay: PD-1/PD-L1 Binding Assay (Alphascreen). The following applies: numeric values. The essentials:
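PD-1/PD-L1 binding detected by anti-6×His acceptor and streptavidin donor beads after 120 min in the dark at 25 °C. Beforehand, the two proteins were incubated 15 min at 25 °C with inhibitor at 0.015–300 nM (1% DMSO). IC50 comes from a log concentration–response curve.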
Usually IC50 stands for the concentration that inhibits the measured activity by half. Take `Cc1c(-c2nc3cc(CN4CCC[C@@H]4C(=O)O)c(OC(F)F)cc3o2)cccc1-c1cccc(-c2nc3cc(CN4CC[C@@H](C)C4)cc(C#N)c3o2)c1C` [Example 132, ((2-(3′-(7-cyano-5-(((R)-3-methylpyrrolidin-1-yl)methyl)benzo[d]oxazol-2-yl)-2,2′-dimethyl-[1,1′-biphenyl]-3-yl)-6-(difluoromethoxy)benzo[d]oxazol-5-yl)methyl)-D-proline]: the IC50 came to 2 nM. Same read-out and setting: next, `Cc1c(-c2ccc(NC(=N)N)cc2)cccc1-c1cccc(-c2nc3cc(CN4CCC[C@H]4C(=O)O)c(OC(F)F)cc3o2)c1C` [Example 225, ((6-(difluoromethoxy)-2-(4″-guanidino-2,2′-dimethyl-[1,1′:3,1″-terphenyl]-3-yl)benzo[d]oxazol-5-yl)methyl)-L-proline]: 2 nM. Same read-out and setting: next, `Cc1c(-c2ccc(CN3CCCC3)c(C(=O)O)c2)cccc1-c1cccc(-c2nc3cc(CN4CCC[C@H]4C(=O)O)c(OC(F)F)cc3o2)c1C` [Example 236, ((2-(3″-carboxy-2,2′-dimethyl-4″-(pyrrolidin-1-ylmethyl)-[1,1′:3′,1″-terphenyl]-3-yl)-6-(difluoromethoxy)benzo[d]oxazol-5-yl)methyl)-L-proline]: 290 nM. Still for that read-out and setting: next, `Cc1c(COc2cc(OCc3cncc(OC(F)F)c3)c(CN3CC[C@@H](O)C3)cc2Cl)cccc1-c1cccc(-c2nc3cc(CN4CCC[C@H]4C(=O)O)c(OC(F)F)cc3o2)c1C` [Example 208, ((2-(3′-((2-chloro-5-((5-(difluoromethoxy)pyridin-3-yl)methoxy)-4-(((R)-3-hydroxypyrrolidin-1-yl)methyl)phenoxy)methyl)-2,2′-dimethyl-[1,1′-biphenyl]-3-yl)-6-(difluoromethoxy)benzo[d]oxazol-5-yl)methyl)-L-proline]: 114 nM; `Cc1c(-c2nc3cc(CN4CC5CC(=O)CC4C5)c(OC(F)F)cc3o2)cccc1-c1cccc(-c2nc3cc(CN4CCC[C@H]4C(=O)O)c(OC(F)F)cc3o2)c1C` (stereo partly drawn) [Example 75, ((6-(difluoromethoxy)-2-(3′-(6-(difluoromethoxy)-5-((3-oxo-6-azabicyclo [3.2.1]octan-6-yl)methyl)benzo[d]oxazol-2-yl)-2,2′-dimethyl-[1,1′-biphenyl]-3-yl)benzo[d]oxazol-5-yl)methyl)-L-proline]: 10 nM; `Cc1cc(-c2cccc(-c3cccc(-c4nc5cc(CN6CCC[C@H]6C(=O)O)c(OC(F)F)cc5o4)c3C)c2C)ccc1CN1CCCC1` [Example 230, ((6-(difluoromethoxy)-2-(2,2′,3″-trimethyl-4″- (pyrrolidin-1-ylmethyl)-[1,1′:3′,1″-terphenyl]-3-yl)benzo[d]oxazol-5-yl)methyl)-L-proline]: 1.5 nM. `Cc1c(Nc2nccc3cc(CN4CC(O)C4)cnc23)cccc1-c1cccc(-c2nc3cc(CN4CCC[C@H]4C(=O)O)c(OC(F)F)cc3o2)c1C` [Example 178, ((6-(difluoromethoxy)-2-(3′-((3-((3-hydroxyazetidin-1-yl)methyl)-1,7-naphthyridin-8-yl)amino)-2,2′-dimethyl-[1,1′-biphenyl]-3-yl)benzo[d]oxazol-5-yl)methyl)proline] displayed an IC50 of 3.9 nM. Still for that read-out and setting: next, `Cc1c(-c2nc3cc(CNCCO)c(OCc4cncc(C#N)c4)cc3o2)cccc1-c1cccc(-c2nc3cc(CN4CCC[C@H]4C(=O)O)c(OC(F)F)cc3o2)c1C` [Example 120, ((2-(3′-(6-((5-cyanopyridin-3-yl)methoxy)-5-(((2-hydroxyethyl)amino)methyl)benzo[d]oxazol-2-yl)-2,2′-dimethyl-[1,1′-biphenyl]-3-yl)-6-(difluoromethoxy)benzo[d]oxazol-5-yl)methyl)-L-proline]: 1.1 nM; `Cc1c(-c2cnc(CN3CCCC3)nc2)cccc1-c1cccc(-c2nc3cc(CN4CCC[C@H]4C(=O)O)c(OC(F)F)cc3o2)c1C` [Example 281, ((6-(difluoromethoxy)-2-(2,2′-dimethyl-3′-(2-(pyrrolidin-1-ylmethyl)pyrimidin-5-yl)-[1,1′-biphenyl]-3-yl)benzo[d]oxazol-5-yl)methyl)-L-proline]: 1.3 nM.

The same assay, now with this note: range symbols.
`COc1nc(-c2cccc(-c3cccc(-c4nc5cc(CN6CCC[C@H]6C(=O)O)c(OC(F)F)cc5o4)c3C)c2C)ccc1CN1CCC(C(F)F)C1` (stereo partly drawn) [Example 275, ((6-(difluoromethoxy)-2-(3′-(5-((3-(difluoromethyl)pyrrolidin-1-yl)methyl)-6-methoxypyridin-2-yl)-2,2′-dimethyl-[1,1′-biphenyl]-3-yl)benzo[d]oxazol-5-yl)methyl)-L-proline] displayed an IC50 of 5 to 50 nM. Same read-out and setting: for `Cc1c(-c2nc3cc(CN4CCC[C@H]4C(=O)O)c(OC(F)F)cc3o2)cccc1-c1cccc(-c2nc3cc(CN4CCC5(C4)CC5(F)F)cc(C#N)c3o2)c1C` (stereo partly drawn) [Example 153, ((2-(3′-(7-cyano-5-((1,1-difluoro-5-azaspiro[2.4]heptan-5-yl)methyl)benzo [d]oxazol-2-yl)-2,2′-dimethyl-[1,1′-biphenyl]-3-yl)-6-(difluoromethoxy)benzo[d]oxazol-5-yl)methyl)-L-proline] the value was 0.1 to 5 nM. With `Cc1c(-c2nc3cc(CN4CCC[C@H]4C(=O)O)c(OC(F)F)cc3o2)cccc1-c1cccc(-c2nc3cc(CN4CC(CO)C4)cc(C#N)c3o2)c1C` [Example 137, ((2-(3′-(7-cyano-5-((3-(hydroxymethyl)azetidin-1-yl)methyl)benzo[d]oxazol-2-yl)-2,2′-dimethyl-[1,1′-biphenyl]-3-yl)-6-(difluoromethoxy)benzo[d]oxazol-5-yl)methyl)-L-proline], the concentration for half-maximal inhibition (IC50) fell in the range of 0.1 to 5 nM. In turn, `Cc1c(-c2ccc(CN3Cc4ccc(NC(N)=O)cc4C3)c(F)c2)cccc1-c1cccc(-c2nc3cc(CN4CCC[C@H]4C(=O)O)c(OC(F)F)cc3o2)c1C` [Example 258, ((6-(difluoromethoxy)-2-(3″-fluoro-2,2′-dimethyl-4″-((5-ureidoisoindolin-2-yl)methyl)-[1,1′:3′,1″-terphenyl]-3-yl)benzo[d]oxazol-5-yl)methyl)-L-proline] registered an IC50 of 5 to 50 nM. Still for that read-out and setting: for `Cc1c(-c2nc3cc(CN4CCC[C@H]4C(=O)O)c(OC(F)F)cc3o2)cccc1-c1cccc(N2CCC(CN3CC(C)(C)C3)CC2)c1C` [Example 308, ((6-(difluoromethoxy)-2-(3′-(4-((3,3-dimethylazetidin-1-yl)methyl)piperidin-1-yl)-2,2′-dimethyl-[1,1′-biphenyl]-3-yl)benzo[d]oxazol-5-yl)methyl)-L-proline] the value was 0.1 to 5 nM; for `COc1nc(-c2cccc(-c3cccc(-c4nc5cc(CN6CCC[C@@H]6C(=O)O)c(OC(F)F)cc5o4)c3C)c2C)ccc1CN1CC[C@H](C)C1` [Example 273, ((6-(difluoromethoxy)-2-(3′-(6-methoxy-5-(((S)-3-methylpyrrolidin-1-yl)methyl)pyridin-2-yl)-2,2′-dimethyl-[1,1′-biphenyl]-3-yl)benzo[d]oxazol-5-yl)methyl)-D-proline], 5 to 50 nM. As for `CCCNCCCNCc1cc2nc(-c3cccc(-c4cccc(-c5nc6cc(CN7CCC[C@H]7C(=O)O)c(OC(F)F)cc6o5)c4C)c3C)oc2cc1OC(F)F` [Example 52, ((6-(difluoromethoxy)-2-(3′-(6-(difluoromethoxy)-5-(((3-(propylamino)propyl)amino)methyl)benzo [d]oxazol-2-yl)-2,2′-dimethyl-[1,1′-biphenyl]-3-yl)benzo[d]oxazol-5-yl)methyl)-L-proline], the IC50 is 0.1 to 5 nM. Still for that read-out and setting: for `Cc1c(-c2nc3cc(CN4CCC[C@H]4C(=O)O)c(OC(F)F)cc3o2)cccc1-c1cccc(-c2nc3cc(CN4CC(C)(CN)C4)cc(C#N)c3o2)c1C` [Example 161, ((2-(3′-(5-((3-(aminomethyl)-3-methylazetidin-1-yl)methyl)-7-cyanobenzo[d]oxazol-2-yl)-2,2′-dimethyl-[1,1′-biphenyl]-3-yl)-6-(difluoromethoxy)benzo[d]oxazol-5-yl)methyl)-L-proline] the value was 0.1 to 5 nM; for `CC(=O)NCCNCc1cc(Cl)c(OCc2cccc(-c3cccc(-c4nc5cc(CN6CCC[C@H]6C(=O)O)c(OC(F)F)cc5o4)c3C)c2C)cc1OCc1cccc(C#N)c1` [Example 210], 0.1 to 5 nM. Still for that read-out and setting: for `Cc1c(-c2nc3cc(CN4CCC[C@H]4C(=O)O)c(OC(F)F)cc3o2)cccc1-c1cccc(-c2nc3cc(CN4CC5(CNC(=O)C5)C4)cc(C#N)c3o2)c1C` [Example 146, ((2-(3′-(7-cyano-5-((7-oxo-2,6-diazaspiro[3.4]octan-2-yl)methyl)benzo[d]oxazol-2-yl)-2,2′-dimethyl-[1,1′-biphenyl]-3-yl)-6-(difluoromethoxy)benzo[d]oxazol-5-yl)methyl)-L-proline] the value was 0.1 to 5 nM; for `Cc1c(-c2nc3cc(CN4CC5CNCC5C4)c(OC(F)F)cc3o2)cccc1-c1cccc(-c2nc3cc(CN4CCC[C@H]4C(=O)O)c(OC(F)F)cc3o2)c1C` (stereo partly drawn) [Example 50, ((6-(difluoromethoxy)-2-(3′-(6-(difluoromethoxy)-5-((hexahydropyrrolo [3,4-c]pyrrol-2(1H)-yl)methyl)benzo[d]oxazol-2-yl)-2,2′-dimethyl-[1,1′-biphenyl]-3-yl)benzo[d]oxazol-5-yl)methyl)-L-proline], 0.1 to 5 nM; for `Cc1c(-c2nc3cc(CN4CCC[C@H]4C(=O)O)c(OC(F)F)cc3o2)cccc1-c1cccc(-c2nc3cc(CN(C(C)CO)C(C)CO)cc(C#N)c3o2)c1C` (stereo partly drawn) [Example 147, ((2-(3′-(5-((bis(1-hydroxypropan-2-yl)amino)methyl)-7-cyanobenzo[d]oxazol-2-yl)-2,2′-dimethyl-[1,1′-biphenyl]-3-yl)-6-(difluoromethoxy)benzo[d]oxazol-5-yl)methyl)-L-proline], 0.1 to 5 nM. `Cc1cc(-c2cccc(-c3cccc(-c4nc5cc(CN6CCC[C@H]6C(=O)O)c(OC(F)F)cc5o4)c3C)c2C)ccc1CN1CCCC1` [Example 218, ((6-(difluoromethoxy)-2-(2,2′,3″-trimethyl-4″- (pyrrolidin-1-ylmethyl)-[1,1′:3′,1″-terphenyl]-3-yl)benzo[d]oxazol-5-yl)methyl)proline] showed an IC50 of 0.1 to 5 nM.
